{
  "source": "ChEMBL document CHEMBL5696442",
  "about": "“Discovery of type II inhibitors of TGFβ-activated kinase 1 (TAK1) and mitogen-activated protein kinase kinase kinase kinase 2 (MAP4K2)” (J Med Chem, 2015)",
  "key": {"[1]": {"molecular_target": "Calcium/calmodulin-dependent protein kinase type II subunit delta (Homo sapiens) (UniProt Q13557)", "experiment": "Inhibition of CaMK2d Lys2 labeling site in human Huh-7 cells at 1 uM by KiNativ Profiling analysis relative to control", "assay_type": "cell-based"}, "[2]": {"molecular_target": "Cyclin-dependent kinase 10 (Homo sapiens) (UniProt Q15131)", "experiment": "Inhibition of CDK10 Lys2 labeling site in human Huh-7 cells at 1 uM by KiNativ Profiling analysis relative to control", "assay_type": "cell-based"}, "[3]": {"molecular_target": "Epidermal growth factor receptor (Homo sapiens) (UniProt P00533)", "experiment": "Inhibition of EGFR ACT labeling site in human Huh-7 cell lysate at 1 uM by KiNativ Profiling analysis relative to control", "assay_type": "subcellular"}, "[4]": {"molecular_target": "Serine/threonine-protein kinase VRK2 (Homo sapiens) (UniProt Q86Y07)", "sequence (Q86Y07 whole entry)": "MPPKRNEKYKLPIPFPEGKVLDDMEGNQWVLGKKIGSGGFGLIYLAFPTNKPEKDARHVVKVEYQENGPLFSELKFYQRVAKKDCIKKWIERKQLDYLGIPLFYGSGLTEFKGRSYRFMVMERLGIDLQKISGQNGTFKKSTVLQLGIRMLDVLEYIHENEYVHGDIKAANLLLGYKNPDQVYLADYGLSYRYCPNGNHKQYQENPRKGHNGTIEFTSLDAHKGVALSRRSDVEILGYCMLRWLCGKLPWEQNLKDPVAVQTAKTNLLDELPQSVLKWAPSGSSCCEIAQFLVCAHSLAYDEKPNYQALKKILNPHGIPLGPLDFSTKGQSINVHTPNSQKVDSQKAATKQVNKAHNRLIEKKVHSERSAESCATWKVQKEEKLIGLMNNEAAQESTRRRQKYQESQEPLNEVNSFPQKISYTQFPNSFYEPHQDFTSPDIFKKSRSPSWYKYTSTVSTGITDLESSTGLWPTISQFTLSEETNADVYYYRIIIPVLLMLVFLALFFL", "experiment": "Inhibition of VRK2 Lys2 labeling site in human Huh-7 cells at 1 uM by KiNativ Profiling analysis relative to control", "assay_type": "cell-based"}, "[5]": {"molecular_target": "Tyrosine-protein kinase CSK (Homo sapiens, UniProt P41240)", "experiment": "Inhibition of CSK ACT labeling site harbouring VSDFGLTKEASSTQDTGK in human Huh-7 cell lysate at 1 uM by KiNativ Profiling analysis relative to control", "assay_type": "subcellular"}, "[6]": {"molecular_target": "Putative phosphatidylinositol 4-kinase alpha-like protein P2 (Homo sapiens) (UniProt A4QPH2)", "sequence (A4QPH2 whole entry)": "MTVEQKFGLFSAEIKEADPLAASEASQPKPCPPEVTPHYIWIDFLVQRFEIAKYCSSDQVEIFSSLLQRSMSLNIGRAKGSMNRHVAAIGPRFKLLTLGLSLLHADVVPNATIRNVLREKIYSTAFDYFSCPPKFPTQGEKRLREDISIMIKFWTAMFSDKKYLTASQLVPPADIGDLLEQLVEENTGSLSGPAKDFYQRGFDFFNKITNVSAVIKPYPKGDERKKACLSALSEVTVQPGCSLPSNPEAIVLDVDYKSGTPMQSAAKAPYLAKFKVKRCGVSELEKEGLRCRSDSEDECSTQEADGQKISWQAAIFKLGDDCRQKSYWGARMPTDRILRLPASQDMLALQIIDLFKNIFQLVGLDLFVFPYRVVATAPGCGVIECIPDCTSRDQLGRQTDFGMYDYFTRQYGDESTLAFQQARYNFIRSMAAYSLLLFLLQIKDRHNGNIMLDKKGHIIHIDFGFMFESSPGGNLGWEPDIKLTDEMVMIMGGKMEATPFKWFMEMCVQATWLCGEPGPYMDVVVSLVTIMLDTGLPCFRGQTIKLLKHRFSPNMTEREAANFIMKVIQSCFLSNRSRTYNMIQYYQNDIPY", "experiment": "Inhibition of PI4KAP2 ATP labeling site in human A-375 cells at 0.5 uM by KiNativ Profiling analysis relative to control", "assay_type": "cell-based"}, "[7]": {"molecular_target": "Citron Rho-interacting kinase (Homo sapiens) (UniProt O14578)", "experiment": "Inhibition of CIT (unknown origin) at 1 uM by Ambit Kinomescan binding assay relative to control"}, "[8]": {"molecular_target": "Serine/threonine-protein kinase 38 (Homo sapiens) (UniProt Q15208)", "sequence (Q15208 2-465 limits assumed)": "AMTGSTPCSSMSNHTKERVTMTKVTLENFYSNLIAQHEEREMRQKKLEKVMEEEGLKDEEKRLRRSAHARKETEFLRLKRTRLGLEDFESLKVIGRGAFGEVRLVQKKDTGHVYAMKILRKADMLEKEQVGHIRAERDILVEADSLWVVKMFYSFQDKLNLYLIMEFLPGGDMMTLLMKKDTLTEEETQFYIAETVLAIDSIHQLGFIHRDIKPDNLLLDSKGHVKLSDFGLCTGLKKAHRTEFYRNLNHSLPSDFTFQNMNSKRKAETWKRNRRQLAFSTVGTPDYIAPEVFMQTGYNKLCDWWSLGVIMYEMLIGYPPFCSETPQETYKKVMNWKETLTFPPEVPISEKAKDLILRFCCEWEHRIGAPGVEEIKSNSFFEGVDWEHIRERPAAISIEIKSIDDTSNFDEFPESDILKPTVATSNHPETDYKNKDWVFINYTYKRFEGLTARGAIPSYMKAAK", "experiment": "Inhibition of NDR1 Lys1 labeling site in human A-375 cells at 0.5 uM by KiNativ Profiling analysis relative to control", "assay_type": "cell-based"}, "[9]": {"molecular_target": "T1, Inhibitor of nuclear factor kappa-B kinase subunit epsilon (Homo sapiens) (UniProt Q14164)", "T1 sequence (whole entry)": "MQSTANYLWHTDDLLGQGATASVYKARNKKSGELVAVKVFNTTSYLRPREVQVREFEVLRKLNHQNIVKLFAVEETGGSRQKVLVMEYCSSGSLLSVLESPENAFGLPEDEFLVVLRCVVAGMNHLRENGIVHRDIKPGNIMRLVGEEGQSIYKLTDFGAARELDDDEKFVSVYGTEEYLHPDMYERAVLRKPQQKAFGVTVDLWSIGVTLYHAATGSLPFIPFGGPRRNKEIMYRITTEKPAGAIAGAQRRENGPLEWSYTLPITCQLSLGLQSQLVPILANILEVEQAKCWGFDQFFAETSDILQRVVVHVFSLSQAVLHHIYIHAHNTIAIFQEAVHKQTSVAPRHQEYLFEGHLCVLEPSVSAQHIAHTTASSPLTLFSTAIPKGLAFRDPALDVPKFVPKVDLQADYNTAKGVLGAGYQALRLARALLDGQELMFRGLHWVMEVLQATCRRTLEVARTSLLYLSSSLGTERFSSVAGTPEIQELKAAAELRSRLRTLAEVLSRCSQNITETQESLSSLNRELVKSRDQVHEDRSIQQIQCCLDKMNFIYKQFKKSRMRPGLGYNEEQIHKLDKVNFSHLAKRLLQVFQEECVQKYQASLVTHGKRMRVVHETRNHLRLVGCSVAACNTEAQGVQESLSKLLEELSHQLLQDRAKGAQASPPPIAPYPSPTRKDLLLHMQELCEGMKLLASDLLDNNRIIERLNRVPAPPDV", "experiment": "Inhibition of IKKe Lys2 labeling site in human A-375 cells at 5 uM by KiNativ Profiling analysis relative to control", "assay_type": "cell-based"}, "[10]": {"molecular_target": "Serine/threonine-protein kinase PAK 1 (Homo sapiens) (UniProt Q13153)", "sequence (Q13153 whole entry, looked up)": "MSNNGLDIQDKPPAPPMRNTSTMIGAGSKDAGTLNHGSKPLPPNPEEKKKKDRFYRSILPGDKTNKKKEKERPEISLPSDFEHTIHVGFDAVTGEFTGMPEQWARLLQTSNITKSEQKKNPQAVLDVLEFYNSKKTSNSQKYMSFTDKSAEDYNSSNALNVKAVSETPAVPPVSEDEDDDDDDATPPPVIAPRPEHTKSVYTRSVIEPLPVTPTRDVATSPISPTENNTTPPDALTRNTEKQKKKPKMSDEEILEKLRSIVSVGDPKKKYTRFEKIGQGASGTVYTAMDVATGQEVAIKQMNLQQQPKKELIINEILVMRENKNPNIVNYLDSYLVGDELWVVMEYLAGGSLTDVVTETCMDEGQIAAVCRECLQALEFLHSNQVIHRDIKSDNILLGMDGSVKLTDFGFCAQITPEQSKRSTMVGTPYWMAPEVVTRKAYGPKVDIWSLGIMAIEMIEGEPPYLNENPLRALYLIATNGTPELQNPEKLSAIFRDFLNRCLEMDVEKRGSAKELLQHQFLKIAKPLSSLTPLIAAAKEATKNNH", "experiment": "Inhibition of PAK1 (unknown origin) at 1 uM by Ambit Kinomescan binding assay relative to control; values are per cent of control"}, "[11]": {"molecular_target": "Ribosomal protein S6 kinase alpha-4 (Homo sapiens) (UniProt O75676)", "experiment": "Inhibition of C-terminal RPS6KA4 kinase domain 2 (unknown origin) at 1 uM by Ambit Kinomescan binding assay relative to control"}, "[12]": {"molecular_target": "Mitogen-activated protein kinase kinase kinase kinase 4 (Homo sapiens, UniProt O95819)", "sequence (O95819 2-1239 limits assumed)": "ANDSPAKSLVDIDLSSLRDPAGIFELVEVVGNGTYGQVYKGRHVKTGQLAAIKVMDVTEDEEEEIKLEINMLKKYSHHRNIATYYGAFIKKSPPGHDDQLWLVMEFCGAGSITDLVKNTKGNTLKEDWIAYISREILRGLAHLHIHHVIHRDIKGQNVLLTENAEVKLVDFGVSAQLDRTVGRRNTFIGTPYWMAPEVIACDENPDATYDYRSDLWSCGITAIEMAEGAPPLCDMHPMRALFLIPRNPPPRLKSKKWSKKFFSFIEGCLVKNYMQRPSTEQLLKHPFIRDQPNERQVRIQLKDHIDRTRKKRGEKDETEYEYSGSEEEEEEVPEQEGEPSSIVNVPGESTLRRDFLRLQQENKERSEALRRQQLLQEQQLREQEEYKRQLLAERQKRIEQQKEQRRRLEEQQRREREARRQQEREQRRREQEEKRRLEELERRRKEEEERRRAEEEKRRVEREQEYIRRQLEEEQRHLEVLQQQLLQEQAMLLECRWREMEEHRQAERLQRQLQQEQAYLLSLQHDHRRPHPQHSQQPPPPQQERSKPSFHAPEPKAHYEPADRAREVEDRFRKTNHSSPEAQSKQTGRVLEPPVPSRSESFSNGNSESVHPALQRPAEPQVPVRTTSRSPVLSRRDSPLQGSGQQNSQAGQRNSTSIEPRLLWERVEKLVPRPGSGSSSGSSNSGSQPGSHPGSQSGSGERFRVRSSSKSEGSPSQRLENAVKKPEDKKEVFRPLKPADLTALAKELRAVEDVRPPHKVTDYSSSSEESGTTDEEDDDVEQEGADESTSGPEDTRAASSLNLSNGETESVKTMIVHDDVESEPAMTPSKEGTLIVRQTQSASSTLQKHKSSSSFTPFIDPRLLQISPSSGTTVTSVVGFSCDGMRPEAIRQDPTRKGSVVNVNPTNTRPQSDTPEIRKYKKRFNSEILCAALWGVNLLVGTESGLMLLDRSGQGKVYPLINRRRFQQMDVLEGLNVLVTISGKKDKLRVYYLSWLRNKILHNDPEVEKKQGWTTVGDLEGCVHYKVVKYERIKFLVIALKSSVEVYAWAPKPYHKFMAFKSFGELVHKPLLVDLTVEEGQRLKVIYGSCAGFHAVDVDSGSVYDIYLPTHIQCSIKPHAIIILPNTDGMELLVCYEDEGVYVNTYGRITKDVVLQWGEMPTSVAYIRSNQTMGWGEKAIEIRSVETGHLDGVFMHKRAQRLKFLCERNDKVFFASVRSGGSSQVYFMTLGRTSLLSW", "experiment": "Inhibition of ZC1/HGK Lys2 labeling site in human A-375 cells at 5 uM by KiNativ Profiling analysis relative to control", "assay_type": "cell-based"}, "[13]": {"molecular_target": "SRSF protein kinase 2 (Homo sapiens) (UniProt P78362)", "experiment": "Inhibition of SRPK2 (unknown origin) at 10 uM by Ambit Kinomescan binding assay"}, "[14]": {"molecular_target": "Glycogen synthase kinase-3 beta (Homo sapiens) (UniProt P49841)", "sequence (P49841 whole entry, looked up)": "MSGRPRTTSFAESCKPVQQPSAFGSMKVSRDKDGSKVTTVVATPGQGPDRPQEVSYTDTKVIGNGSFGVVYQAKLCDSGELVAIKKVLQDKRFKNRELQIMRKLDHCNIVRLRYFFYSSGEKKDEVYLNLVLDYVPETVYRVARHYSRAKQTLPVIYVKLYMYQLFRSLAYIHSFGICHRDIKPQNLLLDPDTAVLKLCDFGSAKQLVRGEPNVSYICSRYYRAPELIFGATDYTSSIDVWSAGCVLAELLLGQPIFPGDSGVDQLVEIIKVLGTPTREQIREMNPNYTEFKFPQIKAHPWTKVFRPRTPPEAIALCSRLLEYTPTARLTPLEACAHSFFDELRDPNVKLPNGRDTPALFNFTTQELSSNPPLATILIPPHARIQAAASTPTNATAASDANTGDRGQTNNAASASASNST", "experiment": "Inhibition of GSK3B (unknown origin) at 10 uM by Ambit Kinomescan binding assay"}, "[15]": {"molecular_target": "NT-3 growth factor receptor (Homo sapiens) (UniProt Q16288)", "experiment": "Inhibition of TRKC (unknown origin) at 10 uM by Ambit Kinomescan binding assay relative to control; values are per cent of control"}, "[16]": {"molecular_target": "T1, Inhibitor of nuclear factor kappa-B kinase subunit epsilon (Homo sapiens)", "experiment": "Inhibition of IKKe K2 labeling site in human Huh-7 cells at 1 uM by KiNativ Profiling analysis relative to control", "assay_type": "cell-based"}, "[17]": {"molecular_target": "Serine/threonine-protein kinase 26 (Homo sapiens) (UniProt Q9P289)", "experiment": "Inhibition of MST4 ATP labeling site in human Huh-7 cells at 10 uM by KiNativ Profiling analysis relative to control", "assay_type": "cell-based"}, "[18]": {"molecular_target": "Cyclin-dependent kinase 17 (Homo sapiens) (UniProt Q00537)", "experiment": "Inhibition of PCTAIRE2 K2 labeling site in human Huh-7 cells at 10 uM by KiNativ Profiling analysis relative to control", "assay_type": "cell-based"}, "[19]": {"molecular_target": "Mitogen-activated protein kinase kinase kinase 20 (Homo sapiens, UniProt Q9NYL2)", "sequence (Q9NYL2 2-800 limits assumed)": "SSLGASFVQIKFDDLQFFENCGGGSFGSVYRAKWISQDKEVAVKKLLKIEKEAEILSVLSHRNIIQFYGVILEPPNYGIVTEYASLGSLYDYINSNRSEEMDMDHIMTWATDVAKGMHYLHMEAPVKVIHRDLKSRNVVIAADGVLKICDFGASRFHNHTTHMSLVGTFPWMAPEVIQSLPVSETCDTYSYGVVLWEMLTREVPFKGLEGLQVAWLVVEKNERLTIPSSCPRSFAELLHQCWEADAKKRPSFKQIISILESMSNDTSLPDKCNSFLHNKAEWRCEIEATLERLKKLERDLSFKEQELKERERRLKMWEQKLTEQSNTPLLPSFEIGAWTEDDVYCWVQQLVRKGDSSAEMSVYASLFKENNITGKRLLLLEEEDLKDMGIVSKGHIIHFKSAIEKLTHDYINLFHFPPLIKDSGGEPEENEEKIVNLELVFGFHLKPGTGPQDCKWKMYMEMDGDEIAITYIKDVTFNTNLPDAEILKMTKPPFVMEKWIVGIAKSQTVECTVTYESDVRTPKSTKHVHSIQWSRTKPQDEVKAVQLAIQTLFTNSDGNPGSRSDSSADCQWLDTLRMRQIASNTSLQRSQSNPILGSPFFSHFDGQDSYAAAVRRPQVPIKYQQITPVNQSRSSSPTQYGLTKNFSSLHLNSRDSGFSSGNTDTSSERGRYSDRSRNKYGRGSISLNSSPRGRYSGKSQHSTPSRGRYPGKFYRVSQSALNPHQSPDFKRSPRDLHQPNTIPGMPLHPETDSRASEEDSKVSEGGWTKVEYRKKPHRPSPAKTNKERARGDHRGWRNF", "experiment": "Inhibition of ZAK Lys1 labeling site in human A-375 cells at 5 uM by KiNativ Profiling analysis relative to control", "assay_type": "cell-based"}, "[20]": {"molecular_target": "Cyclin-dependent kinase 14 (Homo sapiens) (UniProt O94921)", "sequence (O94921 whole entry, looked up)": "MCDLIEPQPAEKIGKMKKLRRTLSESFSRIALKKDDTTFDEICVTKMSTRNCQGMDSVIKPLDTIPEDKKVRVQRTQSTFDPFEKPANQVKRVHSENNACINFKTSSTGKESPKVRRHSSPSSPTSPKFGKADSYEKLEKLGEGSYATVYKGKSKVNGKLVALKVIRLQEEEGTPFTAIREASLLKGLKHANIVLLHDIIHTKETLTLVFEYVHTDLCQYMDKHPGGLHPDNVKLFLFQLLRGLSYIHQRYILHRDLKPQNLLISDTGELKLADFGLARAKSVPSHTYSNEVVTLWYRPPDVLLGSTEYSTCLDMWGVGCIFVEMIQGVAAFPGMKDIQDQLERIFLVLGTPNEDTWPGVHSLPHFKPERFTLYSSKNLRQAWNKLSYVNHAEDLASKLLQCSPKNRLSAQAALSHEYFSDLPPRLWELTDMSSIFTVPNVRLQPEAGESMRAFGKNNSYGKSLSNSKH", "experiment": "Inhibition of PFTAIRE1 Lys2 labeling site in human A-375 cells at 0.05 uM by KiNativ Profiling analysis relative to control"}, "[21]": {"molecular_target": "Dual specificity tyrosine-phosphorylation-regulated kinase 1B (Homo sapiens) (UniProt Q9Y463)", "experiment": "Inhibition of DYRK1B (unknown origin) at 10 uM by Ambit Kinomescan binding assay"}, "[22]": {"molecular_target": "Calcium/calmodulin-dependent protein kinase type II subunit alpha (Homo sapiens) (UniProt Q9UQM7)", "experiment": "Inhibition of CAMK2a K2 labeling site in human Huh-7 cells at 10 uM by KiNativ Profiling analysis relative to control", "assay_type": "cell-based"}, "[23]": {"molecular_target": "Tyrosine-protein kinase ABL1 (Homo sapiens, UniProt P00519)", "experiment": "Inhibition of ABL Lys1 labeling site in human A-375 cells at 0.5 uM by KiNativ Profiling analysis relative to control", "assay_type": "cell-based"}, "[24]": {"molecular_target": "Tyrosine-protein kinase Fes/Fps (Homo sapiens, UniProt P07332)", "experiment": "Inhibition of FES K1 labeling site in human Huh-7 cells at 1 uM by KiNativ Profiling analysis relative to control", "assay_type": "cell-based"}},
  "note": "Calls of active or inactive are those of the source. The rule behind the calls is not given here.",
  "data": [
    {"smiles": "CNc1cc(Oc2cc(C(=O)Nc3cc(N4CCN(C)CC4)cc(C(F)(F)F)c3)ccc2C)ncn1", "values": [
      {"measurement": "inhibition", "setting": "[1]", "value": 20.3, "unit": "%"},
      {"measurement": "inhibition", "setting": "[2]", "value": 59.3, "unit": "%"},
      {"measurement": "inhibition", "setting": "[3]", "value": -3.2, "unit": "%"},
      {"measurement": "inhibition", "setting": "[4]", "value": 40.4, "unit": "%"},
      {"measurement": "inhibition", "setting": "[5]", "value": 7.9, "unit": "%"}
    ]},
    {"smiles": "CCN1CCN(Cc2ccc(NC(=O)c3ccc(C)c(/C=C/c4cnc5[nH]ccc5c4OC)c3)cc2C(F)(F)F)CC1", "values": [
      {"measurement": "inhibition", "setting": "[6]", "value": -8, "unit": "%"},
      {"measurement": "inhibition", "setting": "[7]", "value": 4.6, "unit": "%"},
      {"measurement": "inhibition", "setting": "[8]", "value": -0.8, "unit": "%"},
      {"measurement": "inhibition", "setting": "[9]", "value": 37.6, "unit": "%"},
      {"measurement": "residual activity", "setting": "[10]", "value": 100, "unit": "%"},
      {"measurement": "inhibition", "setting": "[11]", "value": 73, "unit": "%"}
    ]},
    {"smiles": "CCN1CCN(Cc2ccc(NC(=O)c3ccc(C)c(Oc4ccnc5[nH]ccc45)c3)cc2C(F)(F)F)CC1", "values": [
      {"measurement": "inhibition", "setting": "[12]", "value": 92.7, "unit": "%"},
      {"measurement": "inhibition", "setting": "[13]", "value": "inactive"},
      {"measurement": "inhibition", "setting": "[14]", "value": "inactive"},
      {"measurement": "residual activity", "setting": "[15]", "value": 3.8, "unit": "%"},
      {"measurement": "inhibition", "setting": "[16]", "value": 17.7, "unit": "%"},
      {"measurement": "inhibition", "setting": "[17]", "value": 25.3, "unit": "%"},
      {"measurement": "inhibition", "setting": "[18]", "value": 41.7, "unit": "%"},
      {"measurement": "inhibition", "setting": "[19]", "value": 98.1, "unit": "%"},
      {"measurement": "inhibition", "setting": "[20]", "value": 0.6, "unit": "%"},
      {"measurement": "inhibition", "setting": "[21]", "value": "inactive"},
      {"measurement": "inhibition", "setting": "[22]", "value": 6.2, "unit": "%"},
      {"measurement": "inhibition", "setting": "[23]", "value": 85.5, "unit": "%"},
      {"measurement": "inhibition", "setting": "[24]", "value": -4.5, "unit": "%"}
    ]}
  ]
}
